The values that follow are results of earlier work, collected in patent publication US20250243467A1, “BONE MARROW ORGANOIDS PRODUCED FROM INDUCED PLURIPOTENT STEM CELLS AND USES OF THESE ORGANOIDS” (PRISM INGENUITY GMBH, priority 2022, published 2025).

Some targets named below: ALK3 (Homo sapiens, UniProt P36894); ALK2 (Homo sapiens, UniProt Q04771); ALK6 (Homo sapiens, UniProt O00238).
A further data set addresses T1, ALK7 (Homo sapiens, UniProt Q8NER5).
T1 sequence (Q8NER5 21-493): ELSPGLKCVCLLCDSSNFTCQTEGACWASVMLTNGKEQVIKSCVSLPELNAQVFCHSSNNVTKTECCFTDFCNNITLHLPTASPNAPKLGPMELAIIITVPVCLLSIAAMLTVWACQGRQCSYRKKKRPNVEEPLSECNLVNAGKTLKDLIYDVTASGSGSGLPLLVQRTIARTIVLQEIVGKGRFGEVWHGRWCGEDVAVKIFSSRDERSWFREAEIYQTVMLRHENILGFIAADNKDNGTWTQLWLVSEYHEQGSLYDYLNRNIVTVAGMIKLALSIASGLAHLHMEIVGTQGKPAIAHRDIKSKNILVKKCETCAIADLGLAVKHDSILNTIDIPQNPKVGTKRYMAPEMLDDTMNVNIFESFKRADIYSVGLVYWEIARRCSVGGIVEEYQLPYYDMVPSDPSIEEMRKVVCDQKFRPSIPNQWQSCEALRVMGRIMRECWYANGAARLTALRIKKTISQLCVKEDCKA
The following applies: competing for the ATP binding site.

ALK3, sequence (P36894 24-532, species assumed): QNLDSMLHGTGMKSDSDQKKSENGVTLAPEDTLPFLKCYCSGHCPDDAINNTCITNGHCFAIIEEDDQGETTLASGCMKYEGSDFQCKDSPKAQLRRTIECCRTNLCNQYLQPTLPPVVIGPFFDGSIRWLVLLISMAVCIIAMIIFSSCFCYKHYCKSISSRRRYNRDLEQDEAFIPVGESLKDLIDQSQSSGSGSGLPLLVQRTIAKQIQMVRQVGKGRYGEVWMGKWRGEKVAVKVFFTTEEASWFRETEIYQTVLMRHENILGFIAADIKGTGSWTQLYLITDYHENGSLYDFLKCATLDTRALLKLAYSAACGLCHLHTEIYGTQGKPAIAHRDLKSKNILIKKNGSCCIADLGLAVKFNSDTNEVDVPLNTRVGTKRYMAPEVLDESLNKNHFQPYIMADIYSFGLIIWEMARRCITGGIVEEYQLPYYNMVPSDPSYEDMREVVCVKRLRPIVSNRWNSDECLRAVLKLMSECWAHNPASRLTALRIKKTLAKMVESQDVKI
ALK6, sequence (O00238 14-502): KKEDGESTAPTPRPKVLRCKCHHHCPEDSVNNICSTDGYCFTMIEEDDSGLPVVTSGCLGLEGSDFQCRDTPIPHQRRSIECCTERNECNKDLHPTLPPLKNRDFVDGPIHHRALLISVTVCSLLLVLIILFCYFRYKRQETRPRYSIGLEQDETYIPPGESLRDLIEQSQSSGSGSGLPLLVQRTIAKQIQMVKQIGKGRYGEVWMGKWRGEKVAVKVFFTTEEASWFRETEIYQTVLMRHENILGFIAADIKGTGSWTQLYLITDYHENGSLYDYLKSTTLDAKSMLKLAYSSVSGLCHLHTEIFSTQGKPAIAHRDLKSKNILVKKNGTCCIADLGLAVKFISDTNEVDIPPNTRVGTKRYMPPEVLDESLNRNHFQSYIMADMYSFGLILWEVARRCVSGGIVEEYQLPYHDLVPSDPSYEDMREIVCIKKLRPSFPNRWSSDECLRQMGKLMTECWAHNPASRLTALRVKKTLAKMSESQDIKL
ALK2, sequence (Q04771 21-509, species assumed): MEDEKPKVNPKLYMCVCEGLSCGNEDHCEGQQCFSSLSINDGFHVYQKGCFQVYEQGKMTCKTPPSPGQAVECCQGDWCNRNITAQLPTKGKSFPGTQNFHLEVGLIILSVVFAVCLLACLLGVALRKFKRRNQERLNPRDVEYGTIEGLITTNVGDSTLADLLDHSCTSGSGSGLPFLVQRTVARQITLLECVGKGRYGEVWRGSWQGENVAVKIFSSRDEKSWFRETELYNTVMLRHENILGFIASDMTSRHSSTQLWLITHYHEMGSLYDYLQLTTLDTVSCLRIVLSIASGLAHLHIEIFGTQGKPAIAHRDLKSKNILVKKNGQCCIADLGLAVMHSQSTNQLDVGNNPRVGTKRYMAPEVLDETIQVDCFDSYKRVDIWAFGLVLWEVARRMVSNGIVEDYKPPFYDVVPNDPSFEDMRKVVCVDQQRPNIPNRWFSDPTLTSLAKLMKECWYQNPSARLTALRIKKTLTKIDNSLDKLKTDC

Turning to `NC(=O)c1ccc(-c2nc(-c3ccc4c(c3)OCO4)c(-c3ccccn3)[nH]2)cc1` [SB431542], at ALK3, the “inhibition of BMP type I receptor ALK3” value was “does not inhibit”. Moreover, the “inhibition of BMP type I receptor ALK2” value on ALK2 is on record as “does not inhibit”. Also, the “inhibition of ALK7” value on ALK7 is “inhibits”. Besides, on ALK6, the “inhibition of BMP type I receptor ALK6” value is recorded as “does not inhibit”.
